Assay results published in patent US12139768B2, “Polymerase chain reaction primers and probes for Mycobacterium tuberculosis” (Rutgers, The State University of New Jersey, priority 2014, dated 2024).
Entries after “also recorded” stand apart in the source; their conditions may differ.

Experiments:
Format in all cases: cell-based, Mycobacterium tuberculosis
M.tb isolates [1] = test system: M.tb isolates
M.tb isolates [2] = test system: M.tb isolates; remark: listed apart in the source
M.tb isolates [3] = test system: M.tb isolates; remark: listed apart in the source

**Q.** Which “Level of resistance” value (M.tb isolates [1]) does the source give for `NCC[C@H](O)C(=O)N[C@@H]1C[C@H](N)[C@@H](O[C@H]2O[C@H](CN)[C@@H](O)[C@H](O)[C@H]2O)[C@H](O)[C@H]1O[C@H]1O[C@H](CO)[C@@H](O)[C@H](N)[C@H]1O` [AMK, Amikacin] here?
**A.** high level resistance; also recorded: no resistance to AMK

**Q.** What about the “Susceptibility in LJ media” value (M.tb isolates [2]) of the same compound?
**A.** susceptible

**Q.** And the “Total number of isolates Resistant (LJ)” value (M.tb isolates [2])?
**A.** 90

**Q.** With `NC[C@H]1O[C@H](O[C@H]2[C@H](O)[C@@H](O[C@H]3O[C@H](CO)[C@@H](O)[C@H](N)[C@H]3O)[C@H](N)C[C@@H]2N)[C@H](O)[C@@H](O)[C@@H]1O` [KAN, Kanamycin] as the compound, how does the “Total number of isolates Resistant (MGIT)” value (M.tb isolates [3]) read?
**A.** 113

**Q.** What about the “Total number of isolates Resistant (LJ)” value (M.tb isolates [2]) of the same compound?
**A.** 106
